Data taken from patent US4555403A, “Pharmacologically active peptides and medicaments containing the same” (priority 1979, dated 1985).
Non-standard residues stand in square brackets, D forms with d. Residues, ends and D or L forms follow the SMILES beside them.

How the values were obtained:
[1] = stability of opiate-like activity upon incubation with rat brain homogenate and brain-supernate; type: in vitro ADME; conditions: for opiate-like activity after 30 minutes of incubation / opiate-like activity after 120 minutes of incubation: brain homogenate and brain-supernate, 37° C.
Experimental: All incubations of the substances with brain homogenate and brain-supernate take place at 37° C. The respective incubation time is terminated by heating for 10 min. at a temperature of 95° C. This heating up to 95° C. serves to destroy enzymes which are still present and which might be detrimental for the biological procedure for proving the opiate-like activity.
1-2 mg each of the β-casomorphin-5 and of the D-Ala^2 -β-casomorphin-5 according to the invention are put into 50 μl of H2 O and mixed with 300 μl each of brain homogenate and brain-supernate. A sample of each is immediately heated from 37° C. up to 95° C. prior to the incubation. Thus these samples are in contact with the active enzymes only for a very short time and their content of opiate-like activity serves as a reference value at a zero point of time.
After 15, 30, 60, and 120 min. each, further samples of the two incubated opiates are taken from the incubator and heated up to 95° C.
The guinea pig intestine test described by Kosterlitz et al supra, serves as a proving system, which also includes the opiate amounts quantitatively. […]

[2] = stability of opiate-like activity towards rat blood plasma; type: in vitro ADME; conditions: for stability of opiate-like activity towards blood plasma: 300 μl freshly obtained rat blood plasma, 30 minutes stated for β-casomorphin-5
Experimental: Analogously to the above-mentioned incubation example we tested the stability of the opiate-like activity towards blood plasma. Instead of 300 μl of homogenate, we employed 300 μl of freshly obtained rat blood plasma.

[3] = analgetic effect after parenteral or oral application in rats; type: in vivo; conditions: up to 150 mg per kg of body weight
Experimental: The dose in these tests amounted up to 150 mg per kg of body weight of the rats. This disadvantage of the known peptides can be partially or completely attributed to inactivation of the substance in the blood and/or the brain.

[4] = 0.35 μmol into the ventricle system of the brain, rats; cited from earlier work

Row | Compound | opiate-like activity after 30 minutes of incubation [1] | opiate-like activity after 120 minutes of incubation [1] | stability of opiate-like activity towards blood plasma [2] | incubation period after which opiate-like activity disappears ([1]; rat brain homogenate) [min] | incubation period after which opiate-like activity disappears ([2]; blood plasma) [min] | analgetic effect [3] | opiate-like analgesia [4] | time after which analgesia completely disappeared [4] [min] | time to maximum effectiveness of analgesia [4] [min]
1 | COC(=O)CNC(=O)[C@@H]1CCCN1C(=O)[C@H](Cc1ccccc1)NC(=O)[C@@H](C)NC(=O)[C@@H](N)Cc1ccc(O)cc1 [D-Ala^2 -β-casomorphin-5, Tyr-D-Ala-Phe-Pro-Gly-methylester] (H-Y[dA]FPG-OMe) | still could be proven | still could be proven | retained its full activity | – | – | – | – | – | –
2 | COC(=O)CNC(=O)[C@@H]1CCCN1C(=O)[C@H](Cc1ccccc1)NC(=O)[C@@H](CCCNC(=N)N)NC(=O)[C@@H](N)Cc1ccc(O)cc1 [D-Arg^2 -β-casomorphin-5, Tyr-D-Arg-Phe-Pro-Gly-methylester] (H-Y[dR]FPG-OMe) | still could be proven | still could be proven | – | – | – | – | – | – | –
3 | COC(=O)CNC(=O)[C@@H]1CCCN1C(=O)[C@H](Cc1ccccc1)NC(=O)[C@@H](CCSC)NC(=O)[C@@H](N)Cc1ccc(O)cc1 [D-Met^2 -β-casomorphin-5, Tyr-D-Met-Phe-Pro-Gly-methylester] (H-Y[dM]FPG-OMe) | still could be proven | still could be proven | – | – | – | – | – | – | –
4 | COC(=O)CNC(=O)[C@@H]1CCCN1C(=O)[C@H](Cc1ccccc1)NC(=O)[C@@H](CO)NC(=O)[C@@H](N)Cc1ccc(O)cc1 [D-Ser^2 -β-casomorphin-5, Tyr-D-Ser-Phe-Pro-Gly-methylester] (H-Y[dS]FPG-OMe) | still could be proven | still could be proven | – | – | – | – | – | – | –
5 | Tyr-Pro-Phe-Pro-Gly (YPFPG; printed: Tyr-Pro-Phe-Pro-Gly) [β-casomorphin-5] | did not show any opiate-like activity any longer | – | already destroyed | 15 | 15 | does not show any analgetic effect | strong opiate-like analgesia | 60 | ≤ 10
